Publication PMC10801920 (Proceedings of the National Academy of Sciences of the …, 2024)

What was measured:
CtSpartinL = molecular target: T1, CtSpartinL (Thermochaetoides thermophila, UniProt G0S883); test: FRET-based lipid transfer between tethered liposomes; assay type: biochemical; conditions: 30 C, pH 8.0; labelled compound
T1 sequence (G0S883 7-480): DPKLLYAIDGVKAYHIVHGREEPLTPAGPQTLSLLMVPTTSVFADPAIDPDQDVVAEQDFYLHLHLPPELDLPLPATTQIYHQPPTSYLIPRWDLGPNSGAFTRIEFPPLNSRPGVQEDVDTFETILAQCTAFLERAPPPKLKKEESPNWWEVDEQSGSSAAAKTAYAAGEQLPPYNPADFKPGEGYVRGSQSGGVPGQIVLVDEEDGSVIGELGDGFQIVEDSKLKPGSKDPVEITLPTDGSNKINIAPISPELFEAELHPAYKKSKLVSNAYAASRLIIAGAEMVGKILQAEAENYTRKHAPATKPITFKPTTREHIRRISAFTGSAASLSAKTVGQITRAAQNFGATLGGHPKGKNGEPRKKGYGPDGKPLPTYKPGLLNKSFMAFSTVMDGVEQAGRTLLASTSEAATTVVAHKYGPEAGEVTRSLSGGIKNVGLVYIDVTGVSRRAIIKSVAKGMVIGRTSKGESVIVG

CeSpartin = molecular target: T2, CeSpartin (Caenorhabditis elegans, UniProt O44735); test: as above; assay type: biochemical; conditions: 30 C, pH 8.0, labelled compound
T2 sequence (O44735 1-476): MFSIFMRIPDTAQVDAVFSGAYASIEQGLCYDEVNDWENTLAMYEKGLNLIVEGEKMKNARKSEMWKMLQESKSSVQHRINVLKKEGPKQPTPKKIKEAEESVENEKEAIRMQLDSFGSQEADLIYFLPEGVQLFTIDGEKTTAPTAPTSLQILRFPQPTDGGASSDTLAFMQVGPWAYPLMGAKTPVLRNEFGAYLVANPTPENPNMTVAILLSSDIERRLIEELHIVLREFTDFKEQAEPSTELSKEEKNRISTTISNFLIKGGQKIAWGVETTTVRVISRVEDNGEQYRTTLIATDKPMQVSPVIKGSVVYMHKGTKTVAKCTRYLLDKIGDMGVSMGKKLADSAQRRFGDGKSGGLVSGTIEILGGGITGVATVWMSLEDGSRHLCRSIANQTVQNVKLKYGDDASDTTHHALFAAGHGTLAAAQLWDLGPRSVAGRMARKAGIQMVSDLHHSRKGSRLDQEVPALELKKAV

CtSpartinLSD = molecular target: T3, CtSpartinLSD (Thermochaetoides thermophila, UniProt G0S883); test: native gel comigration; assay type: binding; conditions: on ice, 2 h; labelled compound; also transferred between liposomes
T3 sequence (G0S883 186-480): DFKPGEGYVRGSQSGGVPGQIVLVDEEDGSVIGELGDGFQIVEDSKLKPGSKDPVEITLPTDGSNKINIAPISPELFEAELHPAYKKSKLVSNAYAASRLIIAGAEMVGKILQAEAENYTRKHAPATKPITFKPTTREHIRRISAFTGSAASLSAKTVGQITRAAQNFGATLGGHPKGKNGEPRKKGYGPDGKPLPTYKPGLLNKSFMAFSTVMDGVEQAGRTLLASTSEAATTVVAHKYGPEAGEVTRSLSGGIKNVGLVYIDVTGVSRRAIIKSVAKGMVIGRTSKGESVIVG

[1] = molecular target: spartin-like protein from Chaetomium thermophilum (CtSpartinL), residues 7-480 (Chaetomium thermophilum); test: native gel or EMSA
[2] = molecular target: C. elegans spartin (CeSpartin) (C. elegans); test: native gel or EMSA
native gel or EMSA = molecular target: the molecule itself; test: native gel or EMSA

CCCCCCCCCCCCCCCC(=O)OC[C@H](COP(=O)([O-])OCC[N+](C)(C)C)OC(=O)CCCCCNc1ccc([N+](=O)[O-])c2nonc12 [NBD-PC, 1-palmitoyl-2-{6-[(7-nitro-2-1,3-benzoxadiazol-4-yl)amino]hexanoyl}-sn-glycero-3-phosphocholine]
FRET-based lipid transfer between tethered liposomes (CtSpartinL): addition of CeSpartin, HsSpartin or CtSpartinL to the liposomes all result in increased NBD fluorescence
FRET-based lipid transfer between tethered liposomes (CeSpartin): we observed fluorescence increases consistent with NBD-PC or NBD-PE transfer
native gel comigration (CtSpartinLSD): senescence domain fragment comigrates with NBD-PC on native gels

spartin-like protein from Chaetomium thermophilum (CtSpartinL), residues 7-480 (natural protein)
stoichiometry N [1]: 3

C. elegans spartin (CeSpartin) (natural protein)
stoichiometry N [2]: 3

CCCCCCCCCCCCCCCC(=O)OC[C@H](COP(=O)(O)OCCN)OC(=O)CCCCCNc1ccc([N+](=O)[O-])c2nonc12 [NBD-PE, 1-palmitoyl-2-{6-[(7-nitro-2-1,3-benzoxadiazol-4-yl)amino]hexanoyl}-sn-glycero-3-phosphoethanolamine]
FRET-based lipid transfer between tethered liposomes (CeSpartin; less robust than NBD-PC): we observed fluorescence increases consistent with NBD-PC or NBD-PE transfer

B1: human spartin (HsSpartin) (natural protein, UniProt Q8N0X7 1-666, looked up)
chain: MEQEPQNGEPAEIKIIREAYKKAFLFVNKGLNTDELGQKEEAKNYYKQGIGHLLRGISISSKESEHTGPGWESARQMQQKMKETLQNVRTRLEILEKGLATSLQNDLQEVPKLYPEFPPKDMCEKLPEPQSFSSAPQHAEVNGNTSTPSAGAVAAPASLSLPSQSCPAEAPPAYTPQAAEGHYTVSYGTDSGEFSSVGEEFYRNHSQPPPLETLGLDADELILIPNGVQIFFVNPAGEVSAPSYPGYLRIVRFLDNSLDTVLNRPPGFLQVCDWLYPLVPDRSPVLKCTAGAYMFPDTMLQAAGCFVGVVLSSELPEDDRELFEDLLRQMSDLRLQANWNRAEEENEFQIPGRTRPSSDQLKEASGTDVKQLDQGNKDVRHKGKRGKRAKDTSSEEVNLSHIVPCEPVPEEKPKELPEWSEKVAHNILSGASWVSWGLVKGAEITGKAIQKGASKLRERIQPEEKPVEVSPAVTKGLYIAKQATGGAAKVSQFLVDGVCTVANCVGKELAPHVKKHGSKLVPESLKKDKDGKSPLDGAMVVAASSVQGFSTVWQGLECAAKCIVNNVSAETVQTVRYKYGYNAGEATHHAVDSAVNVGVTAYNINNIGIKAMVKKTATQTGHTLLEDYQIVDNSQRENQEGAANVNVRGEKDEQTKEVKEAKKKDK
stoichiometry N (native gel or EMSA): ~3
